For experiment [1], the system named is MES-induced seizures. In words: MES seizure test, CF-1 mice, compounds given i.p. as solution. The format is in vivo. As to the method:
MES assays were performed at the Department of Neurology at the University of California with CF-1 mice. This study was approved by the University of California, Davis, Animal Use and Care Committee and conducted in accordance with the guidelines of Animal Use and Care of the National Institutes of Health and the University of California. For these assays, stock solutions of SKA-19 (5 mg/ml) were prepared in 5% CremophorEL (Sigma-Aldrich, St. Louis, Mo., USA) and 95% saline, diluted further with saline, and SKA-19 was administered i.p. in a volume of 10 ml/kg body weight. Animals were subjected to a 0.2-s, 60-Hz electrical stimulus through corneal electrodes (5 mm diameter stainless steel balls). The electroshock unit was adjusted to deliver a constant current of 50 mA. Immediately before stimulation, the corneal electrodes were wetted with saline to provide good electrical contact. Animals failing to show tonic hindlimb extension were scored as protected (Kokate et al., 1994).
The mouse maximal electroshock (MES) and 6 Hz seizure models were used. Motor toxicity was assessed using a modification of the horizontal screen test. ED50 values in the seizure models and TD50 values in the toxicity test were determined by nonlinear fitting of dose-response curves. […] Drugs solutions were injected intraperitoneally 10 min prior to administration of the electrical stimulus in a volume of 10 ml/kg body weight.

For experiment [2], the system named is MES-induced seizures. Put plainly: Maximal electroshock (MES) seizure test, rats (ASP, methylcellulose suspension). The format is in vivo. On the procedure:
(§1) SKA-19 was tested under the auspices of the National Institutes of Health's Anticonvulsant Screening Program (ASP). Experiments were performed in male albino CF (Carworth Farms) No. 1 mice or Sprague-Dawley rats according to the established protocols of the ASP (White et al., 2002). SKA-19 was suspended in 0.5% methylcellulose and administered in a volume that permits accuracy of dosage without excessively contributing to total body fluid (0.01 ml/g body weight for mice and 0.04 ml/10 g body weight for rats).
(§2) Animals received an electrical stimulus of 0.2 s duration (50 mA in mice and 150 mA in rat at 60 Hz) delivered via corneal electrodes primed with an electrolyte solution containing 0.5% tetracaine. Animals were restrained by hand and released immediately after stimulation to permit observation of the seizure throughout its entire course. In the initial screens to identify anticonvulsant activity mice were tested at 30 minutes and 4 hours following doses of 3, 10, 30, 100 and 300 mg/kg of SKA-19 and rats tested at time intervals between 0.25 and 4 hours following a standard oral dose of 30 mg/kg. In the subsequent, more quantitative tests at least four doses of SKA-19 (n=8 per dose) were tested at the previously determined time of peak effect (TPE). Abolition of hindlimb tonic extension indicates the test compound's ability to inhibit MES-induced seizure spread. Tonic extension is considered abolished if the hind limbs are not fully extended at 180° with the body.
For orientation: Protection in the maximal electroshock model is a classic sign of anticonvulsant action.

Experiment [3] concerns MES-induced seizures. Put plainly: Maximal electroshock (MES) seizure test, mice (ASP, methylcellulose suspension). The format is in vivo. The note with it: Mus musculus, ip; mice, i.p., methylcellulose suspension, time of peak effect (SKA-19: 2 h); read-out: ED50, seizure protection in the MES test. On the procedure: as §1, §2
Experiment [4] has as its system pentylenetetrazole-induced seizures. In words: Subcutaneous Metrazol seizure test (scMET). The format is in vivo. The note with it: mouse, in vivo. On the procedure: A dose of subcutaneous pentylenetetrazole (Metrazole, MET) which induces convulsions in 97% of animals (CD97: 85 mg/kg mice or 56.4 mg/kg rats) was injected into a loose fold of skin at the neck. Animals were placed in isolation cages and observed for 30 min for the occurrence of clonic spasms persisting for at least 5 s.

Experiment [5] has as its system 6-Hz psychomotor seizures. Put plainly: 6-Hz psychomotor seizure test (ASP). It counts as in vivo, mice. Particulars: Mus musculus, po, orally administered. On the procedure: Seizures characterized by a minimal clonic phase followed by stereotyped automatistic behaviors (jaw chomping and whisker movement) were induced in mice by a low frequency (6 Hz), long-duration (3 s) stimulus. These seizures resemble automatistic behavior in patients with complex partial seizures. At varying times (0.25, 0.5, 1, 2, and 4 h) after drug treatment, individual mice (four at each time point) were challenged with sufficient current (32 or 44 mA at 6 Hz for 3 s) delivered through corneal electrodes to elicit a psychomotor seizure. Animals not displaying this behavior are considered protected.

The subject of experiment [6] is CA1 pyramidal neurons. Put plainly: Hippocampal slice recordings. The format is cell-based, mouse. The note with it: 10 μM, 1-s current injections (150 pA). On the procedure: Brain slice preparation was approved by the University of California, Irvine, Institutional Animal Care and Use Committee. Male C57BL/6 J mice (postnatal day 23) were anesthetized with halothane, decapitated, and brains transferred to an ice-cold, sucrose artificial cerebral spinal fluid (ACSF; Sigma-Aldrich). Hippocampal slices (300 μm) were prepared using a Leica VT1200S vibrating blade microtome (Leica Microsystems Inc., Buffalo Grove, Ill.). Slices were incubated at 33° C. in oxygenated (95% O2, 5% CO2) standard ACSF containing the following (mM) for at least 1 h before recordings: 126 NaCl, 2.5 KCl, 1.25 NaHPO4, 1.2 MgSO4, 10 glucose, 1.2 CaCl2, and 26 NaHCO3. Slices were submerged and continuously perfused at 2 ml/min with oxygenated ACSF at 33° C. during the current-clamp experiments. Voltage-clamp experiments were performed in the same ACSF but with 1 mM tetraethylammonium chloride (Sigma-Aldrich) and 0.5 μM tetrodotoxin (Sigma-Aldrich) added. Pyramidal CA1 neurons were visualized and identified with an upright microscope (Zeiss Axioskop Plus; Zeiss Jena, Germany) with infrared differential interference contrast optics. Recording pipettes (2-5 MΩ) were filled with intracellular solution containing (in mM): 126 K-gluconate; 4 KCl; 10 HEPES; 2 Mg-adenosine triphosphate; 0.3 Tris-guanosine triphosphate; 10 phosphocreatine, pH 7.20, 270-290 mOsm. In the current-clamp mode, depolarizing current pulses were applied from a membrane potential of −65 mV to evoke tonic firing activity. In the voltage-clamp mode, neurons were held at −55 mV and KCa currents elicited by 50-ms voltage steps to 10 mV, applied every 10 s. SKA-19 or NS309 were perfused for 10 min into the bath to allow for equilibrium. Recordings were performed in the whole-cell mode using a MultiClamp 700B amplifier (Molecular Devices), […] and sampled at 20 kHz with a Digidata 1322A digitizer (Molecular Devices). Data were acquired and analyzed with pClamp 10.2 software (Molecular Devices).

Data on two compounds can be found in patent US9675591B2, “Methods for treating seizure disorders and pain” (THE REGENTS OF THE UNIVERSITY OF CALIFORNIA, priority 2013, dated 2017).

Usually ED50 stands for the midpoint of the dose-response relation.

For the compound `Nc1nc2ccc(OC(F)(F)F)cc2s1` [riluzole, 2-amino-6-(trifluoromethoxy)benzothiazole, reference compound], the duration of protection in experiment [1] (10 mg/kg i.p. as solution) was ≤ 45 min. Moreover, the “duration of protective activity” value in experiment [1] (MES test, 10 mg/kg i.p. as solution) was < 1 h. Further, the ED50 in experiment [1] (Mus musculus, ip, 10 min, i.p. as solution, 10 min time point, read-out: ED50, seizure protection in the MES test) stood at 5.37 mg/kg; in experiment [2] (Rattus norvegicus, oral (SKA-19: 4 h time point), read-out: ED50, seizure protection in the MES test) it was 2.64 mg/kg; in experiment [3], 4.07 mg/kg; in experiment [5] (32 mA, 0.5-h time point) it was 10.1 mg/kg; in experiment [5] (44 mA, 1-h time point), 11.5 mg/kg. For the same compound, the “onset of protection from seizures after application” value in experiment [1] (i.p. as solution) is on record as ≤ 5 min. Besides, the “protection from MES induced seizures, initial screen” value in experiment [2] (30 mg/kg i.p.) is given as “completely protected”. Besides, the “activity in the scMET test” value in experiment [4] is “no significant activity”.

Take NS309 [reference compound]: the “termination of firing during the ongoing current train” value in experiment [6] is reported as “did not terminate firing”. For the same compound, in experiment [6] (holding potential -65 mV), the “effect on AP firing frequency” value was “reduced AP firing frequency”.
